In patent US5334596A, “Fibrinogen receptor antagonists” (Merck & Co., Inc., priority 1993, dated 1994):
pIC50: −log10 of the molar value.

Columns and labels:
[1] = tested on: gel-filtered human platelets; assay: ADP-stimulated platelet aggregation (gel-filtered human platelets, fibrinogen, Ca2+); format: cell-based; conditions: gel-filtered human platelets 2×10^8 per ml, fibrinogen 100 ug/ml, Ca2+ 1 mM, 10 mM ADP, 37° C., read-out: IC50 (inhibition of platelet aggregation by 50% relative to a control lacking the compound)
Experimental: Platelet aggregation is measured at 37° C. in a Chronolog aggregometer. The reaction mixture contains gel-filtered human platelets (2×10^8 per ml), fibrinogen (100 micrograms per ml (ug/ml)), Ca^2+ (1 mM), and the compound to be tested. The aggregation is initiated by adding […] ADP 1 minute after the other components are added. The reaction is then allowed to proceed for at least 2 minutes. The extent of inhibition of aggregation is expressed as the percentage of the rate of aggregation observed in the absence of inhibitor. The IC50 is the dose of a particular compound inhibiting aggregation by 50% relative to a control lacking the compound.
In addition to the following preparative procedures, several examples of in-vitro bioactivity of compounds within the scope of the present invention are indicated. To illustrate, one test which is used to evaluate fibrinogen receptor antagonist activity is based on evaluation of inhibition of ADP-stimulated platelets. Aggregation requires that fibrinogen bind to and occupy the platelet fibrinogen receptor site. Inhibitors of fibrinogen binding inhibit aggregation. In the ADP-stimulated platelet aggregation assay used to determine inhibition associated with the compounds claimed in the instant invention, human platelets are isolated from fresh blood, collected into acid citrate/dextrose by differential centrifugation followed by gel filtration on Sepharose 2B in divalent ion-free Tyrode's buffer (pH 7.4) containing 2% bovine serum albumin.

gp IIb/IIIa complex = conditions: literature, background section; cited from earlier work
[2] = tested on: cell attachment-promoting effects of fibronectin and vitronectin; conditions: background section; cited from earlier work

Compound | pIC50 [1] | further results
O=C(O)CCNC(=O)c1cc2c(s1)C(=O)N(CCC1CCNCC1)C2=O [1-6, 5-(2-Carboxyethyl)carboxamide-[N-2-(4-Piperidinyl)ethyl]-2,3-thiophenedicarboximide] | 5.30 | –
CCCCS(=O)(=O)N[C@@H](CNC(=O)c1cc2c(s1)CCN(CCC1CCNCC1)C2=O)C(=O)O [2-9, 2-[3-(2(S)-n-butylsulfonylamino)propionic acid]carboxamide-4-oxo-5-[2-(4-piperidinyl)ethyl]-4,5,6,7-tetrahydro[3,2-c]pyridine] | 8.10 | –
Echistatin | – | affinity for the gp IIb/IIIa complex (gp IIb/IIIa complex): high affinity
arginine-glycine-aspartic acid [Arg-Gly-Asp] | – | activity of the tripeptide [2]: low activity

Continued, in another order:

pIC50 [1] | Compound | further results
4.48 | CCCCS(=O)(=O)N[C@@H](CNC(=O)c1csc2c1C(=O)N(CCC1CCNCC1)CC2)C(=O)O [2-11, 3-[3-(2(S)-n-Butylsulfonylamino)propionic acid]carboxamide-4-oxo-5-[2-(4-piperidinyl)ethyl]-4,5,6,7-tetrahydro[3,2-c]pyridine] | –
8.10 | O=C(NC[C@H](NS(=O)(=O)c1ccccc1)C(=O)O)c1cc2c(s1)CCN(CCC1CCNCC1)C2=O [2-14, 2-[3-(2(S)-Phenylsulfonylamino)propionic acid]carboxamide-4-oxo-5-[2-(4-piperidinyl)ethyl]-4,5,6,7-tetrahydro[3,2-c]pyridine] | –
7.60 | O=C(NCc1ccccc1)N[C@@H](CNC(=O)c1cc2c(s1)CCN(CCC1CCNCC1)C2=O)C(=O)O [2-17, 2-[3-(2(S)-benzylureido)propionic acid]carboxamide-4-oxo-5-[2-(4-piperidinyl)ethyl]-4,5,6,7-tetrahydro[3,2-c]pyridine] | –
6.66 | C[C@H](CC(=O)O)NC(=O)c1cc2c(s1)CCN(CCC1CCNCC1)C2=O [2-21, 2-[3-(3(R)-Methyl)propionic acid]carboxamide-4-oxo-5-[2-(4-piperidinyl)ethyl]-4,5,6,7-tetrahydrothieno[3,2-c]pyridine] | –
6.82 | O=C(O)CCNC(=O)c1cc2c(s1)CCN(CCC1CCNCC1)C2=O [3-3, 2-[3-(Propionic acid)]carboxamide-4-oxo-5-[2-(piperidinyl)]ethyl-4,5,6,7-tetrahydrothieno[3,2-c]pyridine] | –
6.59 | O=C(O)CCCC(=O)c1cc2c(s1)CCN(CCC1CCNCC1)C2=O [4-3] | –
